Measurements taken from patent US12582622B2, “Sodium oxybate to treat idiopathic hypersomnia” (priority 2020, dated 2026).

Key:
narcolepsy = settings: in vivo; cited from earlier work
[1] = tested on: subjects with Idiopathic Hypersomnia; test: Safety of sodium oxybate (Xyrem) oral solution (Example 2); design: species or system human; settings: in vivo
Source text: (§1) This is a study of the efficacy and safety of sodium oxybate (Xyrem) oral solution in subjects with Idiopathic Hypersomnia. The study design is analogous to the study described in Example 1.
(§2) Subjects who complete the Double-blind Randomized Withdrawal Period will enter a 24-week Open-label Safety Extension Period as described in Example 1. A Safety Follow-up visit will occur 2 weeks after the Open-label Safety Extension Period (completion of study).

[2] = tested on: subjects with Idiopathic Hypersomnia; test: Study of the efficacy of sodium oxybate (Xyrem) oral solution: ESS, PGIc, IHSS (Example 2); format: in vivo, human; settings: randomized withdrawal portion of the trial
Source text: as §1
During the Open-label Treatment Titration and Optimization Period subjects will initiate sodium oxybate as either as a once or twice nightly dosing regimen at the discretion of the investigator. The dosing regimen of sodium oxybate may be adjusted as described in Example 1 until an optimally effective and tolerable dose regimen is established. The aim of the sodium oxybate dose titration and optimization is to maximize efficacy (reduction in IH symptoms, e.g., EDS, sleep inertia, and long sleep duration) while ensuring adequate nocturnal sleep and minimizing risk associated with safety and tolerability.
Subjects who have reached an optimized dosing regimen, and who have completed the Open label Treatment Titration and Optimization Period, will then enter the 2-week Stable Dose Period as described in Example 1.
Subjects who meet the randomization criteria at the end of the Stable Dose Period will be randomized to receive sodium oxybate at the stable dose and regimen or placebo at a volume and regimen equivalent to the sodium oxybate dose and regimen for 2 weeks. Randomization will be stratified by the subject's use of stimulant agent at baseline per the following baseline medication groups: 1) subjects not currently taking sodium oxybate but are taking a stimulant or alerting agent; or 2) subjects not currently taking sodium oxybate or a stimulant or alerting agent.
as §2

Row | Compound | REM latency (narcolepsy) | signs and symptoms of narcolepsy (daytime sleepiness, cataplexy, sleep paralysis, hypnagogic hallucinations) (narcolepsy) | sleep apnea (narcolepsy) | total sleep time and REM sleep (narcolepsy) | overall safety profile [1] | ESS score during randomized withdrawal [2] | IHSS during randomized withdrawal [2] | change in PGIc scores during randomized withdrawal [2]
1 | O=C(O)CCCO [GHB, gamma-hydroxybutyrate] | decreases | substantially reduces | reduces | increases |  |  |  | 
2 | O=C(O)CCCO [sodium oxybate] |  |  |  |  | consistent with that previously reported for sodium oxybate (Xyrem) | clinically meaningful maintenance of efficacy | clinically meaningful maintenance of efficacy | clinically meaningful maintenance of efficacy
